Test results as given in patent publication US12612417B2, “Deuterated analogues of selenophenochromenes, synthesis thereof, and methods of using same agents” (Latvian Institute of Organic Synthesis, priority 2019, dated 2026).
Structures can show the parent of a compound that is named as a salt.

How the values were obtained:
[1] = system: MCF-7 (human breast adenocarcinoma, estrogen-positive); experiment: In vitro cytotoxicity (MTT) on MCF-7; type: cell-based; conditions: MCF-7, MTT, 48 h
Protocol: (§1) Anticancer activity of deuterated selenopheno[h]chromenes was tested in vitro using cytotoxicity assay. Thus, monolayer tumor cell lines MDA-MB-435s (human melanoma), MCF-7 (human breast adenocarcinoma, estrogen-positive), MES-SA (human uterus sarcoma), HT-1080 (human fibrosarcoma), A549 (human lung carcinoma), GM08402 (human fibroblast, apparently healthy), 3T3 (mouse embryo fibroblasts), H9C2 (rat cardiomyocytes) were cultured in standard medium DMEM (Dulbecco's modified Eagle's medium) (“Sigma”) supplemented with 10% heat-inactivated fetal bovine serum (“Sigma”). The cell viability was assessed by addition of 3-(4,5-dimethylthiazol-2-yl)-2,5-diphenyltetrazolinium bromide (MTT). Briefly, cells were seeded (2−6×10^4 cells/ml) in 96-well plates and allowed to attach for 24 h.
(§2) Tested compound solutions were prepared and serially diluted to obtain appropriate concentrations. Cells were treated with different concentrations (0.032-100 μM) and incubated for 48 h at 37° C., 5% CO2 Then the culture medium was removed and medium containing 0.2 mg/ml MTT was added. After 3 h (37° C., 5% CO2), the MTT-containing medium was removed, and 200 μl of dimethyl sulfoxide (DMSO) was immediately added to each sample. The absorbance was assessed at 540 nm on a Tecan multiplate reader Infinite 1000 (Austria). The half-maximal inhibitory concentration (IC50) of each compound was calculated using Graph Pad Prism® 3.0.

[2] = system: MES-SA (human uterus sarcoma); experiment: In vitro cytotoxicity (MTT) on MES-SA; type: cell-based; conditions: 48 h
Protocol: as §1, §2

[3] = In vitro cytotoxicity (MTT) on 3T3; type: cell-based, mouse; conditions: mouse, 3T3 embryo fibroblasts, 3T3, MTT
Protocol: as §1, §2

MDA-MB-231 = experiment: In vitro cytotoxicity (MTT) on MDA-MB-231; type: cell-based, human; conditions: MDA-MB-231, MTT, 48 h
[4] = system: HT-1080 (human fibrosarcoma); experiment: In vitro cytotoxicity (MTT) on HT-1080; type: cell-based; conditions: HT-1080, MTT, 48 h
Protocol: as §1, §2

[5] = In vitro cytotoxicity (MTT) on GM08402; type: cell-based, human; conditions: human, GM08402 fibroblasts
Protocol: as §1, §2

[6] = In vitro cytotoxicity (MTT) on H9C2; type: cell-based, rat; conditions: rat, H9C2 cardiomyocytes
Protocol: as §1, §2

[7] = system: A549 (human lung carcinoma); experiment: In vitro cytotoxicity (MTT) on A549; type: cell-based; conditions: 48 h
Protocol: as §1, §2

[8] = system: 3T3 (mouse embryo fibroblasts); experiment: In vitro cytotoxicity (MTT) on 3T3; type: cell-based; conditions: 3T3, MTT, 48 h
Protocol: as §1, §2

[9] = Metabolic stability in vitro, lysate of human hepatoma cells HepG2; type: in vitro ADME; conditions: 37° C.
Protocol: Assay: the human hepatoma cells HepG2 (ATCC HB-8065) were grown in Eagle's Minimum Essential Medium supplemented with 10% fetal calf serum. The cells were harvested at 80% confluence. The hepatocytes were scraped, two time washed in Hank's Balanced Salt Solution (HBSS) buffer pH-7.4 and suspended in homogenization buffer composed of 10 mM Tris-HCl, 10 mM KCl, 0.15 mM MgCl2 pH 6.7. The cells were homogenized on ice by homogenizer LabGEN7 (Cole Palmer) at 5000 rpm 15 sec. Homogenized cells in HBSS with compound (protein concentration is 95 μg/ml) incubate 37° C. After 10, 30, 60, 120, 180, and 240 min collect 1 ml sample and add 0.1 ml 40% TCA, then centrifugation at 1200 g for 10 min. Supernatant collected and analyzed.
Results: The stability of deuterated selenopheno[h]chromenes I-1-I-3 compared with non-deuterated analogue methyl 7-bromo-8-((4-methylpiperazin-1-yl)methyl)-2-oxo-2H-selenopheno[3,2-h]chromene-3-carboxylate dihydrochloride (I-0) was tested in vitro using lysate of human hepatoma cells HepG2. The results are presented in FIG. 1 (x-axis—minutes of incubation, y-axis—percent of remained ester).

[10] = system: GM08402 (human fibroblast, apparently healthy); experiment: In vitro cytotoxicity (MTT) on GM08402; type: cell-based; conditions: 48 h
Protocol: as §1, §2

[11] = system: H9C2 (rat cardiomyocytes); experiment: In vitro cytotoxicity (MTT) on H9C2; type: cell-based; conditions: 48 h
Protocol: as §1, §2

Compound	IC50 ([1]; Homo sapiens, MCF7)	IC50 ([2]; Homo sapiens)	IC50 at 48 h [3]	IC50 (MDA-MB-231; Homo sapiens)	IC50 ([4]; Homo sapiens)	IC50 at 48 h [5]	IC50 at 48 h [6]	IC50 ([7]; Homo sapiens)	IC50 [1]	IC50 [2]	IC50 [8]	percent of remained ester ([9]; after 240 minutes of incubation)	stability to hydrolysis (in words) ([9]; incubation up to 240 min, FIG. 1)	IC50 (MDA-MB-231)	IC50 [4]	IC50 [10]	IC50 [11]	IC50 [7]
COC(=O)c1cc2ccc3c(Br)c(CN4CCN(C)CC4)[se]c3c2oc1=O [Compound I-0, methyl 7-bromo-8-((4-methylpiperazin-1-yl)methyl)-2-oxo-2H-selenopheno[3,2-h]chromene-3-carboxylate dihydrochloride, reference compound]	54 ± 6 µM	56 ± 1 µM	100 ± 5 µM	95 ± 4 µM	58 ± 5 µM	77 ± 16 µM	92 ± 12 µM	> 100 µM	–	–	–	–	–	–	–	–	–	–
Butyl-d9 7-bromo-8-((4-methylpiperazin-1-yl)methyl)-2-oxo-2H-selenopheno[3,2-h]chromene-3-carboxylate dihydrochloride [Compound I-3]	–	–	–	–	–	–	–	–	70 ± 3 µM	29 ± 3 µM	34 ± 7 µM	24%	highest stability to hydrolysis	35 ± 8 µM	31 ± 3 µM	62 ± 3 µM	30 ± 4 µM	40 ± 13 µM
[2H]C([2H])([2H])OC(=O)c1cc2ccc3c(Br)c(CN4CCN(C)CC4)[se]c3c2oc1=O [Compound I-1, Methyl-d3 7-bromo-8-((4-methylpiperazin-1-yl)methyl)-2-oxo-2H-selenopheno[3,2-h]chromene-3-carboxylate dihydrochloride]	82 ± 5 µM	40 ± 7 µM	66 ± 11 µM	84 ± 13 µM	70 ± 6 µM	89 ± 16 µM	82 ± 14 µM	105 ± 7 µM	–	–	–	–	–	–	–	–	–	–
Cl.Cl.[2H]C([2H])([2H])C([2H])([2H])OC(=O)c1cc2ccc3c(Br)c(CN4CCN(C)CC4)[se]c3c2oc1=O [Compound I-2, Ethyl-d5 7-bromo-8-((4-methylpiperazin-1-yl)methyl)-2-oxo-2H-selenopheno[3,2-h]chromene-3-carboxylate dihydrochloride]	46 ± 4 µM	56 ± 15 µM	64 ± 9 µM	90 ± 15 µM	59 ± 6 µM	94 ± 8 µM	73 ± 4 µM	> 100 µM	–	–	–	–	–	–	–	–	–	–
